Assay results: patent US20240425490A1, “SULFAMIDE RIBONUCLEOTIDE REDUCTASE (RNR) INHIBITORS AND USES THEREOF” (Boundless Bio, Inc., priority 2021, published 2024)

Molecular target: T1, RNR (RNR1:RNR2 1:1) (Homo sapiens, UniProt P23921)
T1 sequence (P23921 1-792): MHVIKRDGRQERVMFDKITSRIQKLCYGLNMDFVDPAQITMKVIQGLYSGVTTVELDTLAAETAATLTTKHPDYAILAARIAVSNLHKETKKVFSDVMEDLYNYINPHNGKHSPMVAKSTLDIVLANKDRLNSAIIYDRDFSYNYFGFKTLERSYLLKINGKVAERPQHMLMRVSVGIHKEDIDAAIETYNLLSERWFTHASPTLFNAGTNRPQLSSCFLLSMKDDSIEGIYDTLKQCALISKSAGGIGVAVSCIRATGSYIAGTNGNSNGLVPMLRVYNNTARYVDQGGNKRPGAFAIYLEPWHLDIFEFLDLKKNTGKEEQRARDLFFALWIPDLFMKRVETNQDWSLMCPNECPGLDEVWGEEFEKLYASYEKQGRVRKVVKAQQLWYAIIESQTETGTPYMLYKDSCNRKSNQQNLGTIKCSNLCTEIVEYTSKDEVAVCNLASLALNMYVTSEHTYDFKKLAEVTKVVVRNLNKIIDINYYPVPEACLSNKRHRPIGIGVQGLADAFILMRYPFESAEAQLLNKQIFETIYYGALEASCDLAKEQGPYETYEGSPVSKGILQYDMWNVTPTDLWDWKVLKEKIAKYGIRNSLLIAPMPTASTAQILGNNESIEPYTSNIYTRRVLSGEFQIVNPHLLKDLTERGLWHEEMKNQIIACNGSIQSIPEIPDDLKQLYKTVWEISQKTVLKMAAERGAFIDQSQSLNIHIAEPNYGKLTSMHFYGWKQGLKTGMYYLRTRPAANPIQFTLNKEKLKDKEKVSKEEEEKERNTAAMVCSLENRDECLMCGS
Experiment: RNR enzyme activity, rapid-fire mass spectrometry (RFMS) assay
Format: biochemical
Conditions: RNR 50 nM, CDP 5 μM, ATP 1 mM, 37° C., 45 min, compounds screened up to 50 μM, read-out: RF/MS IC50
Summary of the method: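 Human RNR1:RNR2 (1:1, 50 nM) pre-incubated 15 min at room temperature with compound, then reacted with 5 μM CDP and 1 mM ATP, no NADPH, for 45 min at 37 °C. Stopped with 6% HCOOH; turnover read by rapid-fire mass spectrometry; Triapine and hydroxyurea as reference compounds.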

SMILES	IC50 [µM]
Cc1ccc(F)c([C@H](C)[C@H](NS(=O)(=O)N2CCC(C3CCCCC3)CC2)c2n[nH]c(=O)o2)c1C [Example 10, 4-cyclohexyl-N-((1S,2S)-2-(6-fluoro-2,3-dimethylphenyl)-1-(5-oxo-4,5-dihydro-1,3,4-oxadiazol-2-yl)propyl)piperidine-1-sulfonamide]	10 to 100
Cc1ccc(F)c([C@H](C)[C@H](NS(=O)(=O)N2CCC3(CC2)CC(=O)N(C)C3)c2n[nH]c(=O)o2)c1C [Example 77, N-((1S,2S)-2-(6-fluoro-2,3-dimethylphenyl)-1-(5-oxo-4,5-dihydro-1,3,4-oxadiazol-2-yl)propyl)-2-methyl-3-oxo-2,8-diazaspiro[4.5]decane-8-sulfonamide]	10 to 100
Cc1ccc(F)c([C@H](C)[C@H](NS(=O)(=O)N2CCCCC2C(=O)O)c2n[nH]c(=O)o2)c1C (stereo partly drawn) [Example 14, 1-(N-((1S,2S)-2-(6-fluoro-2,3-dimethylphenyl)-1-(5-oxo-4,5-dihydro-1,3,4-oxadiazol-2-yl)propyl)sulfamoyl)piperidine-2-carboxylic acid]	10 to 100
Cc1ccc(F)c([C@@H](C)[C@H](NS(=O)(=O)N2CCC3(CC2)OCCO3)c2n[nH]c(=O)o2)c1C [Example 133, N-((1S,2R)-2-(6-fluoro-2,3-dimethylphenyl)-1-(5-oxo-4,5-dihydro-1,3,4-oxadiazol-2-yl)propyl)-1,4-dioxa-8-azaspiro[4.5]decane-8-sulfonamide]	10 to 100
Cc1ccc(F)c(C(C)[C@H](NS(=O)(=O)N2CCC3(CCC(=O)N3C)CC2)c2n[nH]c(=O)o2)c1C (stereo partly drawn) [Example 93, N-((1S)-2-(6-fluoro-2,3-dimethylphenyl)-1-(5-oxo-4,5-dihydro-1,3,4-oxadiazol-2-yl)propyl)-1-methyl-2-oxo-1,8-diazaspiro[4.5]decane-8-sulfonamide]	1 to 10
Cc1ccc(F)c([C@@H](C)[C@H](NS(=O)(=O)N2CC(C)CC(C)C2)c2n[nH]c(=O)o2)c1C (stereo partly drawn) [Example 121, N-((1S,2R)-2-(6-fluoro-2,3-dimethylphenyl)-1-(5-oxo-4,5-dihydro-1,3,4-oxadiazol-2-yl)propyl)-3,5-dimethylpiperidine-1-sulfonamide]	1 to 10
CC(=O)N1CCN(S(=O)(=O)N[C@H](c2n[nH]c(=O)o2)C(C)c2c(F)ccc(C)c2C)CC1 (stereo partly drawn) [Example 37, 4-acetyl-N-((1S)-2-(6-fluoro-2,3-dimethylphenyl)-1-(5-oxo-4,5-dihydro-1,3,4-oxadiazol-2-yl)propyl)piperazine-1-sulfonamide]	1 to 10
Cc1ccc(F)c([C@H](C)[C@H](NS(=O)(=O)N2CCCC(C)(C)C2)c2n[nH]c(=O)o2)c1C [Example 119, N-((1S,2S)-2-(6-fluoro-2,3-dimethylphenyl)-1-(5-oxo-4,5-dihydro-1,3,4-oxadiazol-2-yl)propyl)-3,3-dimethylpiperidine-1-sulfonamide]	1 to 10
Cc1ccc(F)c(C(C)[C@H](NS(=O)(=O)N2CCC(CN(C)C)CC2)c2n[nH]c(=O)o2)c1C (stereo partly drawn) [Example 31, 4-((dimethylamino)methyl)-N-((1S)-2-(6-fluoro-2,3-dimethylphenyl)-1-(5-oxo-4,5-dihydro-1,3,4-oxadiazol-2-yl)propyl)piperidine-1-sulfonamide]	10 to 100
Cc1ccc(F)c([C@H](C)[C@H](NS(=O)(=O)N2CCC3(CCO3)CC2)c2n[nH]c(=O)o2)c1C [Example 61, N-((1S,2S)-2-(6-fluoro-2,3-dimethylphenyl)-1-(5-oxo-4,5-dihydro-1,3,4-oxadiazol-2-yl)propyl)-1-oxa-7-azaspiro[3.5]nonane-7-sulfonamide]	10 to 100
CC(=O)[C@@H]1CCCCN1S(=O)(=O)N[C@H](c1n[nH]c(=O)o1)[C@@H](C)c1c(F)ccc(C)c1C [Example 18, (S)-2-acetyl-N-((1S,2S)-2-(6-fluoro-2,3-dimethylphenyl)-1-(5-oxo-4,5-dihydro-1,3,4-oxadiazol-2-yl)propyl)piperidine-1-sulfonamide]	1 to 10
Cc1ccc(F)c([C@@H](C)[C@H](NS(=O)(=O)N2CCCC[C@@H]2C(N)=O)c2n[nH]c(=O)o2)c1C [Example 12, (R)-1-(N-((1S,2R)-2-(6-fluoro-2,3-dimethylphenyl)-1-(5-oxo-4,5-dihydro-1,3,4-oxadiazol-2-yl)propyl)sulfamoyl)piperidine-2-carboxamide]	1 to 10
CNC(=O)C1CCN(S(=O)(=O)N[C@H](c2n[nH]c(=O)o2)[C@@H](C)c2c(F)ccc(C)c2C)CC1 [Example 56, 1-(N-((1S,2S)-2-(6-fluoro-2,3-dimethylphenyl)-1-(5-oxo-4,5-dihydro-1,3,4-oxadiazol-2-yl)-propyl)sulfamoyl)-N-methylpiperidine-4-carboxamide]	10 to 100
Cc1ccc(F)c([C@H](C)[C@H](NS(=O)(=O)N2CCC3(CC2)OCCCO3)c2n[nH]c(=O)o2)c1C [Example 86, N-((1S,2S)-2-(6-fluoro-2,3-dimethylphenyl)-1-(5-oxo-4,5-dihydro-1,3,4-oxadiazol-2-yl)propyl)-1,5-dioxa-9-azaspiro[5.5]undecane-9-sulfonamide]	1 to 10
Cc1ccc(F)c([C@@H](C)[C@H](NS(=O)(=O)N2CCC[C@](C)(O)C2)c2n[nH]c(=O)o2)c1C [Example 20, (S)-N-((1S,2R)-2-(6-fluoro-2,3-dimethylphenyl)-1-(5-oxo-4,5-dihydro-1,3,4-oxadiazol-2-yl)propyl)-3-hydroxy-3-methylpiperidine-1-sulfonamide]	1 to 10

More lines, now with the values ahead:

IC50 [µM]	SMILES
1 to 10	Cc1ccc(F)c([C@@H](C)[C@H](NS(=O)(=O)N2CCC(c3c[nH]c4ccccc34)CC2)c2n[nH]c(=O)o2)c1C [Example 68, N-((1S,2R)-2-(6-fluoro-2,3-dimethylphenyl)-1-(5-oxo-4,5-dihydro-1,3,4-oxadiazol-2-yl)propyl)-4-(1H-indol-3-yl)piperidine-1-sulfonamide]
0.1 to 1	Cc1ccc(F)c([C@@H](C)[C@H](NS(=O)(=O)N2CCCCC2CC(N)=O)c2n[nH]c(=O)o2)c1C (stereo partly drawn) [Example 15, 2-(1-(N-((1S,2R)-2-(6-fluoro-2,3-dimethylphenyl)-1-(5-oxo-4,5-dihydro-1,3,4-oxadiazol-2-yl)propyl)sulfamoyl)piperidin-2-yl)acetamide]
1 to 10	Cc1ccc(F)c(C(C)[C@H](NS(=O)(=O)N2CCC(n3cccn3)CC2)c2n[nH]c(=O)o2)c1C (stereo partly drawn) [Example 96, N-((1S)-2-(6-fluoro-2,3-dimethylphenyl)-1-(5-oxo-4,5-dihydro-1,3,4-oxadiazol-2-yl)propyl)-4-(1H-pyrazol-1-yl)piperidine-1-sulfonamide]
0.1 to 1	Cc1ccc(F)c([C@@H](C)[C@H](NS(=O)(=O)N2CCC3(CC2)CC(=O)N(C)C3)c2n[nH]c(=O)o2)c1C [Example 76, N-((1S,2R)-2-(6-fluoro-2,3-dimethylphenyl)-1-(5-oxo-4,5-dihydro-1,3,4-oxadiazol-2-yl)propyl)-2-methyl-3-oxo-2,8-diazaspiro[4.5]decane-8-sulfonamide]
1 to 10	Cc1ccc(F)c([C@@H](C)[C@H](NS(=O)(=O)N2CC3CCCC(C3)C2)c2n[nH]c(=O)o2)c1C [Example 43, N-((1S,2R)-2-(6-fluoro-2,3-dimethylphenyl)-1-(5-oxo-4,5-dihydro-1,3,4-oxadiazol-2-yl)propyl)-3-zabicyclo[3.3.1]nonane-3-sulfonamide]
1 to 10	Cc1ccc(F)c(C(C)[C@H](NS(=O)(=O)N2CCC(C3CC3)CC2)c2n[nH]c(=O)o2)c1C (stereo partly drawn) [Example 49, 4-cyclopropyl-N-((1S)-2-(6-fluoro-2,3-dimethylphenyl)-1-(5-oxo-4,5-dihydro-1,3,4-oxadiazol-2-yl)propyl)piperidine-1-sulfonamide]
0.1 to 1	Cc1ccc(F)c([C@@H](C)[C@H](NS(=O)(=O)N2CCC3(CCCC3)CC2)c2n[nH]c(=O)o2)c1C [Example 71, N-((1S,2R)-2-(6-fluoro-2,3-dimethylphenyl)-1-(5-oxo-4,5-dihydro-1,3,4-oxadiazol-2-yl)propyl)-8-azaspiro[4.5]decane-8-sulfonamide]
0.1 to 1	Cc1ccc(F)c([C@@H](C)[C@H](NS(=O)(=O)N2CCC(CCl)CC2)c2n[nH]c(=O)o2)c1C [Example 41, 4-(chloromethyl)-N-((1S,2R)-2-(6-fluoro-2,3-dimethylphenyl)-1-(5-oxo-4,5-dihydro-1,3,4-oxadiazol-2-yl)propyl)piperidine-1-sulfonamide]
0.1 to 1	Cc1ccc(F)c([C@@H](C)[C@H](NS(=O)(=O)N2CC3C(C2)C3(C)C)c2n[nH]c(=O)o2)c1C (stereo partly drawn) [Example 102, N-((1S,2R)-2-(6-fluoro-2,3-dimethylphenyl)-1-(5-oxo-4,5-dihydro-1,3,4-oxadiazol-2-yl)propyl)-6,6-dimethyl-3-azabicyclo[3.1.0]hexane-3-sulfonamide]
